The source of these data is ChEMBL document CHEMBL4619721, “Design, synthesis & biological evaluation of ferulic acid-based small molecule inhibitors against tumor-associated carbonic anhydrase IX” (Bioorg Med Chem, 2020).

Series [1] deals with T1, Carbonic anhydrase 9 (Homo sapiens, UniProt Q16790).
Description: Inhibition of human carbonic anhydrase 9 using p-nitrophenyl acetate as substrate by UV-VIS spectrophotometric analysis
Another series has as its target Carbonic anhydrase 2 (Homo sapiens, UniProt P00918). In words: Inhibition of human carbonic anhydrase 2 using p-nitrophenyl acetate as substrate by UV-VIS spectrophotometric analysis.
Series [2] concerns the target Carbonic anhydrase 5A, mitochondrial (Homo sapiens, UniProt P35218). In words: Inhibition of human carbonic anhydrase 5A using p-nitrophenyl acetate as substrate by UV-VIS spectrophotometric analysis.
For series [3], the system named is HT-29. The experiment in a line: Down regulation of carbonic anhydrase 9 mRNA expression in human HT-29 cells by RT-PCR analysis. In kind it is functional, cell-based.
A further series has as its target Albumin (Homo sapiens, UniProt P02768). In words: Binding affinity to human serum albumin assessed as decrease in emission intensity by fluorescence emission spectrum based Stern-Volmer method. In kind it is ADME. The settings on record: isolated protein.
In series [4] the test system is HepG2. The experiment in a line: Effect on ephithelial-mesenchymal transition in human HepG2 cells assessed as decrease in Zeb1 expression at IC50 concentration after 48 hrs by immunoblotting analysis. In kind it is functional, cell-based.
In series [5] the test system is HT-29. The experiment in a line: Effect on ephithelial-mesenchymal transition in human HT-29 cells assessed as decrease in Zeb1 expression at IC50 concentration after 48 hrs by immunoblotting analysis. In kind it is functional, cell-based.
In a further series the test system is HEK293. The experiment in a line: Cytotoxicity against HEK293 cells assessed as reduction in cell viability measured after 48 or 72 hrs by MTT assay. As to conditions: human, hek293, 72 h. In kind it is cell-based.
Series [6] has as its system HT-29. The experiment in a line: Effect on ephithelial-mesenchymal transition in human HT-29 cells assessed as decrease in snail expression at IC50 concentration after 48 hrs by immunoblotting analysis. Type of series: functional, cell-based.
For series [7], the system named is HepG2. In words: Induction of apoptosis in human HepG2 cells assessed as increase in cleaved PARP expression at IC50 concentration after 48 hrs by immunoblotting analysis. Type of series: functional, cell-based.
Series [8] concerns HT-29. The experiment in a line: Effect on ephithelial-mesenchymal transition in human HT-29 cells assessed as increase in E-cadherin expression at IC50 concentration after 48 hrs by immunoblotting analysis. Type of series: functional, cell-based.
The test system of series [9] is HepG2. In words: Induction of apoptosis in human HepG2 cells assessed as viable cells at IC50 concentration after 24 hrs by Annexin V-FITC/propidium iodide staining based flow cytometry (reference value: 98.9%). In kind it is functional.
The subject of series [10] is HepG2. The experiment in a line: Induction of apoptosis in human HepG2 cells assessed as early apoptotic cells at IC50 concentration after 24 hrs by Annexin V-FITC/propidium iodide staining based flow cytometry (reference value: 0%). Type of series: functional.
The subject of series [11] is HepG2. In words: Inhibition of colony formation in human HepG2 cells at IC50 concentration after 10 days by crystal violet staining based colony formation assay. In kind it is functional, cell-based.
Series [12] has as its system HepG2. In words: Antimigratory activity against human HepG2 cells assessed as inhibition of cell migration at IC50 concentration after 24 hrs by crystal violet staining microscopy based transwell migration assay. In kind it is functional.
Series [13] deals with HepG2. In words: Cytotoxicity against human HepG2 cells assessed as reduction in cell viability after 48 hrs by MTT assay. Type of series: functional, cell-based. The settings on record: HepG2, 48 h.
For series [14], the system named is HepG2. The experiment in a line: Down regulation of carbonic anhydrase 9 mRNA expression in human HepG2 cells by RT-PCR analysis. In kind it is functional, cell-based.
For series [15], the system named is HT-29. In words: Antimigratory activity against human HT-29 cells assessed as inhibition of cell migration at IC50 concentration after 24 hrs by crystal violet staining microscopy based transwell migration assay. In kind it is functional.
Series [16] deals with HT-29. In words: Induction of apoptosis in human HT-29 cells assessed as late apoptotic cells at IC50 concentration after 24 hrs by Annexin V-FITC/propidium iodide staining based flow cytometry (reference value: 0.089%). In kind it is functional.
Series [17] deals with HT-29. In words: Down regulation of HIF1-alpha protein expression in human HT-29 cells by immunoblotting analysis. In kind it is functional, cell-based.
For series [18], the system named is HepG2. The experiment in a line: Down regulation of carbonic anhydrase 9 protein expression in human HepG2 cells by immunoblotting analysis. Type of series: functional, cell-based.
Series [19] deals with T1, Carbonic anhydrase 9. In words: Binding affinity to human carbonic anhydrase 9 assessed as dissociation constant by isothermal titration calorimetric assay.
In series [20] the test system is HepG2. In words: Induction of apoptosis in human HepG2 cells assessed as necrotic cells at IC50 concentration after 24 hrs by Annexin V-FITC/propidium iodide staining-based flow cytometric analysis (reference value: 1.14%). In kind it is functional.
The subject of series [21] is HepG2. In words: Effect on ephithelial-mesenchymal transition in human HepG2 cells assessed as decrease in slug expression at IC50 concentration after 48 hrs by immunoblotting analysis. In kind it is functional, cell-based.
The test system of series [22] is HT-29. The experiment in a line: Effect on ephithelial-mesenchymal transition in human HT-29 cells assessed as decrease in slug expression at IC50 concentration after 48 hrs by immunoblotting analysis. In kind it is functional, cell-based.
Series [23] has as its system HT-29. In words: Induction of apoptosis in human HT-29 cells at 8.44 uM after 24 hrs by Annexin V-FITC/propidium iodide staining based flow cytometry relative to control. Type of series: functional.
For series [24], the system named is HepG2. In words: Effect on ephithelial-mesenchymal transition in human HepG2 cells assessed as decrease in snail expression at IC50 concentration after 48 hrs by immunoblotting analysis. In kind it is functional, cell-based.
Series [25] concerns HT-29. In words: Inhibition of colony formation in human HT-29 cells at IC50 concentration after 10 days by crystal violet staining based colony formation assay. In kind it is functional, cell-based.
Series [26] deals with HT-29. The experiment in a line: Induction of apoptosis in human HT-29 cells assessed as increase in cleaved PARP expression at IC50 concentration after 48 hrs by immunoblotting analysis. In kind it is functional, cell-based.
Series [27] deals with HT-29. The experiment in a line: Induction of apoptosis in human HT-29 cells assessed as viable cells at IC50 concentration after 24 hrs by Annexin V-FITC/propidium iodide staining based flow cytometry (reference value: 98.5%). In kind it is functional.
The test system of series [28] is HepG2. The experiment in a line: Down regulation of HIF1-alpha protein expression in human HepG2 cells by immunoblotting analysis. In kind it is functional, cell-based.
Series [29] has as its system HepG2. The experiment in a line: Effect on ephithelial-mesenchymal transition in human HepG2 cells assessed as increase in E-cadherin expression at IC50 concentration after 48 hrs by immunoblotting analysis. In kind it is functional, cell-based.
In series [30] the test system is HT-29. The experiment in a line: Induction of apoptosis in human HT-29 cells assessed as early apoptotic cells at IC50 concentration after 24 hrs by Annexin V-FITC/propidium iodide staining based flow cytometry (reference value: 0.73%). Type of series: functional.
Series [31] concerns HepG2. The experiment in a line: Induction of apoptosis in human HepG2 cells at 11.22 uM after 24 hrs by Annexin V-FITC/propidium iodide staining based flow cytometry relative to control. In kind it is functional.
The subject of series [32] is HepG2. In words: Induction of apoptosis in human HepG2 cells assessed as late apoptotic cells at IC50 concentration after 24 hrs by Annexin V-FITC/propidium iodide staining-based flow cytometric analysis (reference value: 0%). In kind it is functional.
The subject of series [33] is HT-29. The experiment in a line: Down regulation of carbonic anhydrase 9 protein expression in human HT-29 cells by immunoblotting analysis. Type of series: functional, cell-based.
In series [34] the test system is HT-29. The experiment in a line: Cytotoxicity against human HT-29 cells assessed as reduction in cell viability after 48 hrs by MTT assay. Type of series: functional, cell-based. As to conditions: HT-29, 48 h.
In series [35] the test system is HT-29. The experiment in a line: Induction of apoptosis in human HT-29 cells assessed as necrotic cells at IC50 concentration after 24 hrs by Annexin V-FITC/propidium iodide staining based flow cytometry (reference value: 0.68%). Type of series: functional.
For series [36], the species on record is Homo sapiens. In words: Selectivity index, ratio of IC50 for human carbonic anhydrase 2 using p-nitrophenyl acetate as substrate to IC50 for human carbonic anhydrase 5A using p-nitrophenyl acetate as substrate by.
The species named for series [37] is Homo sapiens. The experiment in a line: Selectivity index, ratio of IC50 for human carbonic anhydrase 2 using p-nitrophenyl acetate as substrate to IC50 for human carbonic anhydrase 9 using p-nitrophenyl acetate as substrate.

Active and inactive are the calls of the source. The rule behind the calls is not given here.

Carbonic anhydrase 5A, mitochondrial, sequence (P35218 whole entry): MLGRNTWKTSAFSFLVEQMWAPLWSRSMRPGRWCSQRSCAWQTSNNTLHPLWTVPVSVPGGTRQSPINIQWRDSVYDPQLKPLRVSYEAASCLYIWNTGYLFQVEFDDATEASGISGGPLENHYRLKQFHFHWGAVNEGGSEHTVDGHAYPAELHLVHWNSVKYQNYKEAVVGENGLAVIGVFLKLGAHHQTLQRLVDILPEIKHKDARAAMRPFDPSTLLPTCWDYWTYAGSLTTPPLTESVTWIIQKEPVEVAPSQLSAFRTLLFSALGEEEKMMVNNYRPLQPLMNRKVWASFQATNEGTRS
Albumin, sequence (P02768 whole entry): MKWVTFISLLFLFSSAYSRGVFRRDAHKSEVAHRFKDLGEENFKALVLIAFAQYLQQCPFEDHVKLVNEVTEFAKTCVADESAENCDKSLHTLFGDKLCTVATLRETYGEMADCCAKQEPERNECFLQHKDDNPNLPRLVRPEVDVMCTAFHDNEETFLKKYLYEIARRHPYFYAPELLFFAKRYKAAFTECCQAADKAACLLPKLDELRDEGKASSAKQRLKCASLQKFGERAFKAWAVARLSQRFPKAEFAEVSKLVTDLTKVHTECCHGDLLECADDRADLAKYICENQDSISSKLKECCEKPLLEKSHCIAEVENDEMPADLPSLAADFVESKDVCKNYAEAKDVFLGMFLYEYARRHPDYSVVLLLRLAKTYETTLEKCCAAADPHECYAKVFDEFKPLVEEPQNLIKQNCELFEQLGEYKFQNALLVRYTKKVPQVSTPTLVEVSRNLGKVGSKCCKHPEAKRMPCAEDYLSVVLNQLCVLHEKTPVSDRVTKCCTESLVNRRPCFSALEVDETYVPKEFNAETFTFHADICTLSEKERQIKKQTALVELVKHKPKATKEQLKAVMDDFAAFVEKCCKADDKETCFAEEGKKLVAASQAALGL

Molecule `COc1cc(/C=C/C(=O)O)ccc1OCc1cn(-c2ccccc2OC)nn1` registered an IC50 against Carbonic anhydrase 9 [1] of 2.6 µM.

On Carbonic anhydrase 9 [1], `COc1cc(/C=C/C(=O)O)ccc1OCc1cn(-c2cccc(C)c2)nn1` yielded an IC50 of 5.24 µM.

As to `COc1cc(/C=C/C(=O)O)ccc1OCc1cn(-c2ccccc2)nn1`, the IC50 (against Carbonic anhydrase 9 [1]; against Carbonic anhydrase 2; in series [2]) was greater than 20 µM each time.

For `COc1cc(/C=C/C(=O)O)ccc1OCc1cn(-c2cccc(F)c2)nn1`, at Carbonic anhydrase 9 [1], the IC50 turned out to be 12.2 µM.

For the molecule `COc1cc(/C=C/C(=O)O)ccc1OCc1cn(-c2cccc([N+](=O)[O-])c2)nn1`, the result in the series with HT-29 [3], in the series with HepG2 [4], in the series with HT-29 [5], with HT-29 [6], in the series with HepG2 [7] and in the series with HT-29 [8] was Active. Besides, the outcome with HepG2 [12], with HepG2 [14], in the series with HT-29 [15], in the series with HT-29 [17], in the series with HepG2 [18] and in the series on HepG2 [21] was Active. The outcome with HT-29 [22], in the series on HepG2 [24], in the series on HT-29 [26], with HepG2 [28], in the series on HepG2 [29] and with HT-29 [33] was Active. Further, at Albumin, the Ka is 5.46 ×10⁴ /M. Moreover, the half-maximal inhibitory concentration (IC50) on Carbonic anhydrase 9 [1] stood at 0.024 µM; in the series with HepG2 [13], 11.2 µM; on Carbonic anhydrase 2 it was 1.99 µM; in series [2], 1.1 µM; with HT-29 [34], 8.44 µM. For the same molecule, the Activity result is listed as “Non-Toxic” in the series with HEK293; 80.9% in the series with HepG2 [9]; 2.17% with HepG2 [10]; 10.5% with HT-29 [16]; 10.3% with HepG2 [20]; 24.44% in the series on HT-29 [23]. For the same molecule, the Activity in the series on HT-29 [27] amounted to 75.6%; with HT-29 [30] it was 2.29%; in the series with HepG2 [31], 19.22%; in the series with HepG2 [32], 6.6%; in the series on HT-29 [35] it was 11.6%. The inhibition entry in the series with HepG2 [11] and in the series on HT-29 [25] was “Active” throughout. In addition, the Kd at Carbonic anhydrase 9 [19] was 29 µM.

Consider `COc1cc(/C=C/C(=O)O)ccc1OCc1cn(-c2ccc(F)cc2)nn1`, for which inhibition against Carbonic anhydrase 9 [1] was half-maximal at 7.64 µM (IC50).

Consider `COc1cc(/C=C/C(=O)O)ccc1OCc1cn(-c2ccc(Cl)cc2)nn1`, for which the IC50 against Carbonic anhydrase 9 [1] worked out at 0.771 µM.

Take `COc1ccc(-n2cc(COc3ccc(/C=C/C(=O)O)cc3OC)nn2)cc1`: the IC50 on Carbonic anhydrase 9 [1] was determined as 4.76 µM.

Molecule `COc1cc(/C=C/C(=O)O)ccc1OCc1cn(-c2ccc(C(=O)O)cc2)nn1` came in with an IC50 against Carbonic anhydrase 9 [1] of 0.92 µM.

`COc1cc(/C=C/C(=O)O)ccc1OCc1cn(-c2ccccc2C)nn1`: the IC50 at Carbonic anhydrase 9 [1] came to 3.64 µM.

Consider `COc1cc(/C=C/C(=O)O)ccc1OCc1cn(-c2ccccc2[N+](=O)[O-])nn1`, for which half-maximal inhibition against Carbonic anhydrase 9 [1] (IC50) required 2.44 µM.

On Carbonic anhydrase 9 [1], `COc1cc(/C=C/C(=O)O)ccc1OCc1cn(-c2ccc(C)cc2)nn1` displayed an IC50 of 4.22 µM.

The molecule `COc1cc(/C=C/C(=O)O)ccc1OCc1cn(-c2cccc(Cl)c2)nn1` gave an IC50 on Carbonic anhydrase 9 [1] of 1.37 µM.

On to `COc1cc(/C=C/C(=O)O)ccc1OCc1cn(-c2ccccc2Cl)nn1`, for which, on Carbonic anhydrase 9 [1], the IC50 worked out at 14.5 µM.

Turning to `COc1cc(/C=C/C(=O)O)ccc1OCc1cn(-c2ccccc2F)nn1`, on Carbonic anhydrase 9 [1], the midpoint of inhibition, the IC50, lay at 8.94 µM.

Turning to `COc1cc(/C=C/C(=O)O)ccc1O` [FERULATE], the IC50 was determined as 9.39 µM at Carbonic anhydrase 9 [1], 6.44 µM at Carbonic anhydrase 2 and 8.86 µM in [2]. The Ratio IC50 in the series listed under Homo sapiens [36] and in the series filed under Homo sapiens [37] was 0.7 in each case.

Take `COc1cc(/C=C/C(=O)O)ccc1OCc1cn(-c2ccc([N+](=O)[O-])cc2)nn1`: at Carbonic anhydrase 9 [1], the concentration for half-maximal inhibition (IC50) was found to be 1.45 µM.

`COc1cccc(-n2cc(COc3ccc(/C=C/C(=O)O)cc3OC)nn2)c1` yielded an IC50 on Carbonic anhydrase 9 [1] of 1.96 µM.
